Measured values reported in patent US10253037B2, “Drug with antiviral activity (variants)” (priority 2015, dated 2019).

Assays:
[1] = test system: HIV-1899A strain; experiment: Antiviral effect in MT-4 cells infected with HIV-1 (MTT, cytopathic effect, syncytium); format: cell-based; conditions: 0.01 TCD50/cell, 5 days
Experimental: Cells. MT-4 human lymphoblastoid cells were used. The cells were incubated in RPMI 1640 medium with 10% serum of cow embryos, 100 μg/ml of gentamicin.
Viruses. HIV-1899A strain was used as the source of the virus.
The drug. Samples of drugs dissolved in dimethylsulfoxide were studied.
Study of the antiviral effect of the drug.
(§1) The investigated medicinal products were added to the cells at various doses with simultaneous infection with the virus at a dose of 0.01 TCD50/cell. The cell cultures were incubated at 37° C. in the atmosphere with 5% of CO2 and at 98% humidity for 5 days. The results were recorded by staining the cells with tetrazolium dye (MTT method) with spectrophotometry and light microscopy: investigation of cytopathic effect of the virus (CPD) and virus-induced formation of syncytium (syncytium is a conglomerate of several cells with a common cell membrane formed as a result of fusion of their membranes).
The degree of protection of cells from the cyto-destructive effect of the virus was determined by the following formula:
[formula] where • A is the number of viable cells in the experimental group; • B is the same in the infected culture (virus control); • K is the same in the uninfected culture (cell control).

[2] = test system: HIV-1899A strain; experiment: Joint action with anti-HIV drugs: cell protection in HIV-1 infected MT-4 cells (MTT); format: cell-based
Experimental: MT-4 human lymphoblastoid cells were used. The cells were cultured in RPMI 1640 medium with 10% serum of cow embryos, 100 μg/ml gentamicin.
The strain of HIV-1899A was used as a source of the virus.
The drug. Samples of drugs dissolved in dimethylsulfoxide were studied. As an antiretroviral reference drug, Raltegravir (prototype) was used.
Study of the antiviral action of the drug (cell protection).
as §1, with “drugs” for “medicinal products”, “Cell” for “The cell”, “5%” for “5% of”, “and” for “and at”

[3] = test system: MT-4 human lymphoblastoid cells; experiment: Cytotoxic effect of the drug on uninfected MT-4 cells (viability by dye); format: cell-based; conditions: 5 days
Experimental: Cells. MT-4 human lymphoblastoid cells were used. […] The drug. Samples of drugs dissolved in dimethylsulfoxide were studied. Study of the cytotoxic effect of the drug. The investigated medicinal product was added to the cells in various concentrations. […] Recording of the results: determination of the viability and the number of the cells by means of a dye.

[4] = test system: Hepatitis B virus (HBV); experiment: Amount of extracellular HBV DNA in HepG2.2.15 culture medium (RT-PCR); format: cell-based; conditions: 5 μg/ml, HepG2.2.15 cells, 5 days; untreated control 4.42 +/− 0.28
Experimental: HepG2.2.15 line cells infected with Hepatitis B virus were grown in DMEM medium supplemented with 10% bovine serum at 5% CO2, 37° C.
Analysis of the amount of extracellular HBV of the DNA.
After 5 days of HepG2.2.15 incubation the culture medium was selected, the cells were separated by centrifugation, and the DNA was isolated by the Klintschar and Neuhuber method (Klintschar and Neuhuber, 2000). Quantitation of HBV was performed using RT-PCR.

Row | SMILES | HIV 1 infection Cytopathic effect of the virus, % ([1]; 10 μg/ml) | HIV 1 infection Protection of cells, % ([1]; 10 μg/ml) | HIV 1 infection Cytopathic effect of the virus, % ([1]; 30 μg/ml) | HIV 1 infection Protection of cells, % ([1]; 30 μg/ml) | HIV 1 infection Cytopathic effect of the virus, % ([1]; 50 μg/ml) | Protection of cells, % ([2]; Raltegravir alone, 10 μg/ml) | Protection of cells, % ([2]; Retrovir alone, 0.003 μg/ml) | Without virus (cytotoxicity) Viability of cells, % ([3]; 10 μg/ml) | Without virus (cytotoxicity) Viability of cells, % ([3]; 30 μg/ml) | Without virus (cytotoxicity) Viability of cells, % ([3]; 50 μg/ml) | HIV 1 infection Protection of cells, % ([1]; 50 μg/ml) | HBV Log10 IU/ml (amount of extracellular DNA HBV) [4] | melting point | Protection of cells, % ([2]; Lopinavir alone, 2.5 μg/ml)
1 | Cc1nnc(C(=O)NC(C)(C)c2nc(C(=O)NCc3ccc(F)cc3)c(O)c(=O)n2C)o1 [Raltegravir, reference compound] | 0.0-0.0% | 90% | 0.0-0.0% | 100% | 0.0% | 23% | – | – | – | – | – | – | – | –
2 | Cc1cn([C@H]2C[C@H](N=[N+]=[N-])[C@@H](CO)O2)c(=O)[nH]c1=O [Retrovir] | – | – | – | – | – | – | 13% | – | – | – | – | – | – | –
3 | O=[N+]([O-])c1ccc(C2c3c(O)nc(S)nc3Oc3nc(Cl)nc(O)c32)cc1 (stereo not shown) [Derivative 2, 2-chloro-8-sulfhydryl-5-(4-nitrophenyl)-5H-pyrimido [5′,4′:5,6]pyrano[2,3-d]pyrimidine-4.6-diol] | 0.0-0.0% | 100% | 96-100% | 0% | 55-80% | – | – | 100.0% | 100.0% | 100.0% | 10% | 2.65 +/− 0.19 Log10 IU/ml | – | –
4 | O=[N+]([O-])c1ccc(C2c3c(O)nc(Cl)nc3Oc3nc(Cl)nc(Cl)c32)cc1 (stereo not shown) [Derivative 3, 2,6,8-trichloro-5-(4-nitrophenyl)-5H-pyrimido [5′, 4′:5,6] pyrano [2,3-d] pyrimidin-4-ol] | 15-70% | 50% | 18-92% | 30% | 10-40% | – | – | 100.0% | 100.0% | 100.0% | 65% | – | 265 to 267 °C | –
5 | Cc1cccc(C)c1OCC(=O)N[C@@H](Cc1ccccc1)[C@@H](O)C[C@H](Cc1ccccc1)NC(=O)[C@H](C(C)C)N1CCCNC1=O [Lopinavir] | – | – | – | – | – | – | – | – | – | – | – | – | – | 17%
6 | O=[N+]([O-])c1ccc(C2c3c(O)nc(Cl)nc3Oc3nc(Cl)nc(O)c32)cc1 [Derivative 1] | 0.0-0.0% | 100% | 0.0-0.0% | 90% | 0.0-0.0% | – | – | 100.0% | 100.0% | 100.0% | 100% | 2.58 +/− 0.33 Log10 IU/ml | – | –
7 | Oc1nc(Cl)nc2c1C(c1cccc(Cl)c1)c1c(O)nc(Cl)nc1O2 [Derivative 6] | 57.5-80.0% | 10.7% | 37.5-62.5% | 71.7% | 0.0-0.0% | – | – | 100.0% | 100.0% | 100.0% | 90.5% | – | – | –
8 | COc1ccc(C2c3c(O)nc(Cl)nc3Oc3nc(Cl)nc(O)c32)cc1 [Derivative 7] | 12-65% | 45% | 5-15% | 80% | 0.0-0.0% | – | – | 100.0% | 100.0% | 100.0% | 100% | 2.74 +/− 0.25 Log10 IU/ml | – | –
9 | Oc1nc(Cl)nc2c1C(c1ccccc1)c1c(O)nc(Cl)nc1O2 [Derivative 5] | 0.0-0.0% | 100% | 57.5-80.0% | 10.7% | 37.5-62.5% | – | – | 100.0% | 100.0% | 100.0% | 71.7% | – | – | –
10 | O=[N+]([O-])c1ccc(C2C3=C(O)NC(O)(S)N=C3Oc3nc(Cl)nc(O)c32)cc1 (stereo not shown) [Derivative 4, 2-chloro-8-sulfhydryl-5-(4-nitrophenyl)-5H-pyrimido [5′,4′:5,6]pyrano[2,3-d]pyrimidine-4,6,8-triol] | 0.0-0.0% | 95% | 15-60% | 50% | 0.0-0.0% | – | – | 100.0% | 100.0% | 100.0% | 90% | – | 270 °C (dec.) | –
